Test results from patent publication EP2698385A1, “Detection of synthetic cannabinoids” (priority 2012, dated 2014).

Key:
[1] = tested on: antibodies raised to Immunogens I & II; assay: Competitive ELISA (Example 19), sensitivity and cross-reactivity of selected molecules, one result for both antibodies; format: binding, sheep; settings: for % CR / IC50: first Table 3, Standard Conc 750.00 ng/ml; for binding / cross-reaction with antibodies raised from Immunogens I and II: result in words
Description: (§1) Aqueous solutions of the immunogens prepared in examples 5 and 13 were formulated with Freund's Complete Adjuvant (FCA) to form emulsions consisting of 2mg/ml Immunogen I and 2mg/ml of Immunogen II in 50%(v/v) FCA. Three sheep were immunised with each emulsion (1° immunisations), 0.25ml being intramuscularly injected at four sites in the rump of each animal. Subsequent immunisations (boosts 2-8) contained 1mg/ml Immunogen I and 1mg/ml Immunogen II. All boosts were emulsified in 50%(v/v) Freund's Incomplete Adjuvant (FIA) and administered to the appropriate sheep in the same manner as the 1° immunisations, at monthly intervals. Blood sampling took place 7-14 days after each boost. Each sample was processed to produce antiserum, which was further purified by caprylic acid and ammonium sulphate precipitation to yield an immunoglobulin (Ig) fraction. The Ig fraction was evaluated by competitive ELISA microtiter plate assay, as described in example 19 below.
(§2) Example 19: Development of competitive ELISA for JWH synthetic cannabinoids and metabolites. • (a) The wells of an enhanced binding 96 well polystyrene microtiter plate were coated with the Ig fraction of the antiserum raised to Immunogen I (Hapten A-BTG - example 5) and diluted in 10mM Tris, pH8.5 (125µl/well). The appropriate antibody coating concentration was determined using standard ELISA checkerboard techniques. The plate was incubated for 2 hours at 37°C, washed 4 times over a 10-minute period with Tris buffered saline containing Tween 20 (TBST) and tapped dry. Standard solutions of JWH synthetic cannabinoids, metabolites and selected molecules were prepared in TBST and 50µl of each was added to the appropriate wells. 75µl of conjugate (Hapten A-HRP) diluted in Tris buffer containing EDTA, D-mannitol, sucrose, thimerosal and BSA, was added to each of the wells. The appropriate dilution of conjugate was also determined using standard ELISA checkerboard techniques. The plate was incubated at 25°C for 1 hour. The excess unbound conjugate was removed by washing 6 times over a 10-minute period with TBST and tapped dry. 125µl of tetramethylbenzedine (TMB) substrate solution was added to each well of the plate that was then incubated for 15-20 minutes in the dark at room temperature. The reaction was terminated by addition of 125µl of 0.2M sulphuric acid to each well. The absorbance was then measured at 450nm using a microtiter plate reader. Employing each series of standards, calibration curves were generated and these were used to determine the specificity of the immunoassay for the JWH synthetic cannabinoids, metabolites and selected molecules. The results of this study are presented in Tables 1 to 3, cross-reactivity being calculated according to the following formula: %CR = […] /IC50,CR X 100 [formula] Where %CR is the percentage cross-reactivity, IC50, YWH-018 is the concentration of JWH-018 that causes 50% displacement of signal and IC50, CR is the concentration of JWH synthetic cannabinoid/metabolite/selected molecule that causes 50% displacement of signal.
Table 2: Data generated from a competitive microtiter plate assay for JWH synthetic cannabinoids and metabolites, employing antiserum raised to Immunogen I (Hapten A-BTG) and conjugate (Hapten A-HRP) as detection reagent. • (c) The resulting competitive ELISA for synthetic cannabinoids and metabolites was further employed to analyse urine and serum samples from 20 patients (Table 3). • (d) The resulting competitive ELISA for synthetic cannabinoids and metabolites was also employed to test for the 5-fluoropentyl derivative of JWH-018, (1-(5-fluoropentyl)indol-3yl (1-naphthyl) methanone (Table 4).

[2] = tested on: Antibody to Immunogen VIII; format: binding, sheep; settings: Cross-reactants at 100 ng/ml; Antibody to Immunogen VIII
[3] = tested on: Antibody to Immunogen VII; format: binding, sheep; settings: Cross-reactants at 100 ng/ml; Antibody to Immunogen VII
[4] = tested on: Antibody to Immunogen IV; format: binding, sheep; settings: Cross-reactants at 100 ng/ml; Antibody to Immunogen IV
[5] = tested on: Antibody to Immunogen I; format: binding, sheep; settings: Cross-reactants at 100 ng/ml; Antibody to Immunogen I
Outline: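 Sheep anti-Immunogen I IgG coated on plates, then JWH-018 standards (0–40 ng/ml) competed with hapten-HRP conjugate for 1 h at 25°C. TMB read-out at 450 nm, 4-parameter fit. IC50 is the standard concentration giving 50% B/B0; cross-reactivity of related cannabinoids taken from the calibration curves.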

[6] = target: CB1 receptor (Homo sapiens, UniProt P21554); settings: result in words; detailed in US6900236; cited from earlier work
[7] = tested on: antiserum raised to Immunogen I (Hapten A-BTG); assay: Competitive ELISA microtiter plate assay (Example 19), antiserum raised to Immunogen I, Hapten A-HRP conjugate as detection reagent; format: binding, sheep; settings: first Table 4, Immunogen I
Description: as §1, §2
Table 1: Data generated from a competitive microtiter plate assay for JWH synthetic cannabinoids and metabolites, employing antiserum raised to Immunogen II (Hapten B-BTG) and conjugate (Hapten A-HRP) as detection reagent. (b) In a similar manner to that described in Example 19(a), the wells of a 96 well microtiter plate were coated with the Ig fraction of the antiserum raised to Immunogen II ([…]). Conjugate (Hapten A-HRP) was employed as a detection reagent. […]

[8] = tested on: antiserum raised to Immunogen II (Hapten B-BTG); assay: Competitive ELISA microtiter plate assay (Example 19), antiserum raised to Immunogen II, Hapten A-HRP conjugate as detection reagent; format: binding, sheep; settings: first Table 4, Immunogen II
Description: as §1, §2
Table 1: Data generated from a competitive microtiter plate assay for JWH synthetic cannabinoids and metabolites, employing antiserum raised to Immunogen II (Hapten B-BTG) and conjugate (Hapten A-HRP) as detection reagent. (b) In a similar manner to that described in Example 19(a), the wells of a 96 well microtiter plate were coated with the Ig fraction of the antiserum raised to Immunogen II ([…]). Conjugate (Hapten A-HRP) was employed as a detection reagent.

[9] = tested on: Antibody to Immunogen II; assay: Competitive ELISA (Example 36), antibody RS1833B12, tracer ESC4555/LK959, standard JWH-018; format: binding, sheep; settings: Cross-reactants at 100 ng/ml; Antibody to Immunogen II
Description: An aqueous solution of each immunogen was formulated with Freund's Complete Adjuvant (FCA) to form an emulsion consisting of 2mg/ml* immunogen in 50% (v/v) FCA. Three sheep were immunised with this emulsion (1° immunisation), 0.25ml being intramuscularly injected at each of four sites in the flank of each animal. Subsequent immunizations (boosts) contained 1mg/ml* immunogen. All boosts were emulsified in 50% (v/v) Freund's Incomplete Adjuvant (FIA) and were administered in the same manner as the 1° immunisation, at monthly intervals. Blood sampling took place 7 to 14 days after each boost. *The general procedure for immunogen administration is outlined above, however, it was necessary to deviate from this protocol in some cases, due to reduced immunogen concentrations (Immunogens II, IV, VII and VIII) and/or amount available (Immunogen VIII). Any deviations from the protocol described are outlined in Table 1A below and highlighted in bold. Table 1A: Amount and volume of immunogens administered for primary and subsequent boosts
The appropriate antibody coating dilution was determined using standard ELISA checkerboard techniques. The plate was incubated overnight at 4°C, washed 4 times over 10 minutes with Tris buffered saline containing Tween 20 (TBST) and tapped dry. […] 75µl of conjugate (appropriate hapten-HRP) diluted in Tris buffer (pH 7.2) containing EDTA, D-mannitol, sucrose, thimerosal and BSA, was added to each of the wells. The appropriate dilution of conjugate was also determined using standard ELISA checkerboard techniques. The plate was incubated at 25°C for 1 hour. Excess unbound conjugate was removed by washing 6 times over a 10 minute period with TBST. 125µl of tetramethylbenzidine (TMB) substrate solution was added to each well of the plate that was then incubated for 20 minutes in the dark at room temperature. The reaction was terminated by addition of 125µl 0.2M H2SO4 to each well. The absorbance was then measured at 450nm using a microtiter plate reader. The data are inputted to a computer program called 'KC Junior'. It is a 4 parameter fit curve and allow the calculatation of concentrations between the standard runs.
In a similar manner to that described above, the wells of a 96-well microtiter plate were coated with the IgG fraction of the antiserum raised to Immunogens I or II.
The data set our in Tables 3 and 4 are generated using antibodies raised against the indicated Immunogens in a competitive binding assay with the indicated tracers, using the indicated standards: Table 2
Using the calibration curves generated and employing a single level of cross reactants, these were used to determine the cross-reactivity of each immunoassay with these substances. These are the standards used for the IC50 and cross-reactivity data generation • Immunogen I - JWH-018 • Immunogen II - JWH-018 • Immunogen IV - JWH-018 • Immunogen VII - JWH-015 • Immunogen VIII - JWH-018 Table 4: Cross reactivity of the competitive ELISAs for synthetic cannabinoids and their metabolites

Chain of CB1 receptor (P21554 whole entry): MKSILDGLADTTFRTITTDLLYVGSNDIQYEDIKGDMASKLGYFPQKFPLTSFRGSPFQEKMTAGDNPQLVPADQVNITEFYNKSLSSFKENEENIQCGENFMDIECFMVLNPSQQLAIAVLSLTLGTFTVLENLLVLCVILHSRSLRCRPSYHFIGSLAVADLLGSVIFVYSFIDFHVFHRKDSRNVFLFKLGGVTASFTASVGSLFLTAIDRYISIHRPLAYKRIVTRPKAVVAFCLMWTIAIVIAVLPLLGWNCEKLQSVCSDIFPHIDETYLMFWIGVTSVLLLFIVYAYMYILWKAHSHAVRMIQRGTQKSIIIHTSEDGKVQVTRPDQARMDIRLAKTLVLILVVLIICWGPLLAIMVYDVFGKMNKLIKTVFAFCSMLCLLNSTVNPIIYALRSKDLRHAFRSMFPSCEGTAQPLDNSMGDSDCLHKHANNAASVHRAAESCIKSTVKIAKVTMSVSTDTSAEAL

Row | Compound | % CR [1] | IC50 [1] | %B/B0 [2] | %B/B0 [3] | %B/B0 [4] | other results
1 | CCCCCc1cc(O)c2c(c1)OC(C)(C)[C@@H]1CCC(C)=C[C@@H]21 [Delta 9 THC] | < 0.28% | > 750.00 ng/mL | 96.10% | 96.76% | 93.62% | 
2 | O=C(O)c1c[nH]c2ccccc12 [Indole-3-carboxylic Acid] | < 0.28% | > 750.00 ng/mL | 96.28% | 96.90% | 93.42% | binding / cross-reaction with antibodies raised from Immunogens I and II [1]: do not cross-react
3 | OCCc1c[nH]c2ccc(O)cc12 [5-hydroxytryptophol] | < 0.28% | > 750.00 ng/mL | 102.93% | 98.45% | 94.51% | 
4 | CCCCCCC(C)(C)c1ccc([C@H]2CCC[C@@H](O)C2)c(O)c1 (racemic) [CP-49,497-C7 ((+-) CP 47,497), CP 47,497] | < 0.28% | > 750.00 ng/mL | 86.95% | 94.23% | 96.84% | %B/B0 [5]: 101.20%
5 | O=C(O)Cc1c[nH]c2ccc(O)cc12 [5-hydroxyindole-3-acetic acid (5-HIAA), 5-hydroxyindole-3-acetic acid] | < 0.28% | > 750.00 ng/mL | 108.24% | 99.46% | 96.61% | 
6 | CCn1cc(C(=O)c2cccc3ccccc23)c2ccccc21 [JWH-071] |  |  |  |  |  | binding / cross-reaction with antibodies raised from Immunogens I and II [1]: bind
7 | CCCCCc1cc(O)c2c(c1)OC(C)(C)[C@@H]1CCC(CO)=C[C@@H]21 [11-Hydroxy-δ-9-THC] | < 0.28% | > 750.00 ng/mL |  |  |  | 
8 | O=C(c1cccc2ccccc12)c1cn(CCCCCF)c2ccccc12 [5-Fluoropentyl derivative, 1-(5-Fluoropentyl)indol-3-yl (1-naphthyl) methanone] |  |  |  |  |  | binding to the CB1 receptor [6]: known to bind; binding / cross-reaction with antibodies raised from Immunogens I and II [1]: binds; IC50 [7]: 0.02 ng/mL; % Cross-reactivity ([7]; JWH-018 = 100): 11500.00%; IC50 [8]: 0.22 ng/mL; % Cross-reactivity ([8]; JWH-018 = 100): 908.00%
9 | CCCCCn1cc(C(=O)O)c2ccccc21 [3-Carboxy-N-pentyl-1H -indole, 3-carboxy-1-pentyl-1H-indole] | < 0.28% | > 750.00 ng/mL |  |  |  | 
10 | NCCc1c[nH]c2ccc(O)cc12 [Serotonin] | < 0.28% | > 750.00 ng/mL |  |  |  | 
11 | COc1cccc2[nH]cc(CCN(C)C)c12 [4-Methoxypsilocin] | < 0.28% | > 750.00 ng/mL |  |  |  | 
12 | CCCCCCn1cc(C(=O)c2cccc3ccccc23)c2ccccc21 [JWH-019] |  |  | 74.50% | 70.05% | 21.96% | %B/B0 [9]: 15.42%; %B/B0 [5]: 7.22%
13 | O=C(c1ccccc1I)c1cn(CCCCCF)c2ccccc12 [AM-694] |  |  | 11.92% | 75.66% | 11.30% | %B/B0 [9]: 36.18%; %B/B0 [5]: 12.17%
14 | CCCCCc1cc(O)c2c(c1)OC(C)(C)c1ccc(C)cc1-2 [Cannabinol] | < 0.28% | > 750.00 ng/mL | 94.03% | 95.43% | 94.74% | 
